Legend:
Assay type in all cases: in vivo, C57BL/6J mice
[1] = test system: CD36 (cluster of differentiation 36, 12491); assay: Small intestine mRNA expression, real-time quantitative PCR: CD36; conditions: FIG. 8, HFD+5% w/w in diet, 16 weeks
Experimental: (§1) First, 4-week-old male C57BL/6J mice (60 total) were purchased from Jackson Laboratory. The animals were acclimated to the vivarium in a thermo-hygrostat (20-23° C., 45-65%) under a 12 h light/dark cycle and fed a pelletized commercial non-purified diet for 1 week after arrival. The mice were then randomly divided into 6 groups (n=10) and fed the respective experimental diets for 16 weeks: normal diet group (ND, American Institute of Nutrition (AIN)-76 semi-synthetic diet), high-fat diet group (HFD, 20% fat+1% cholesterol based on AIN-76 diet), PSI group (HFD+5% D-psicose, w/w, Sigma Chemical Company), ERY group (HFD+5% erythritol, w/w, Sigma Chemical Company), GLU group (HFD+5% D-glucose, w/w, Sigma Chemical Company), and FRU group (HFD+5% D-fructose, w/w, Sigma Chemical Company). All high-fat diet-fed groups were allowed to ingest the same calories by pair feeding based on the PSI group. The mice had ad libitum access to distilled water during the experimental period. Their feed intakes and body weights were measured daily and biweekly, respectively. The organ weights and the adipose tissue weights of the mice were measured after sacrificing the animals.
(§2) Samples were prepared and analyzed as previously described. Specifically, total RNA was synthesized into cDNA using a QuantiTect Reverse Transcription kit (QIAGEN Gmb1h, Hilden, Germany). RNA expression was quantified with real-time quantitative PCR using a QuantiTect SYBR Green PCR kit (QIAGEN Gmb1h, Hilden, Germany). Primers were designed to detect CD36 (cluster of differentiation 36, 12491), ApoB48 (apolipoprotein B 48, 238055), FATP4 (fatty acid transporter 4, 26569), ABCG5 (ATP-binding cassette sub-family G member5, 27409), and ABCG8 (ATP-binding cassette sub-family G member8, 67470). GAPDH was used as an internal transcription marker. The reaction was performed a total of 40 cycles (each consisting of 15 sec at 94° C., 30 sec at 58° C., 30 sec at 72° C., and 15 sec at 65° C.). Fluorescence signals were monitored every cycle and the resulting threshold cycles (Ct) were analyzed. mRNA expression in each experimental group was quantified using a CFX96 Real time system (Bio-rad, USA).

[2] = test system: CPT1α (Carnitine palmitoyltransferase 1α, 12894); assay: Hepatic mRNA expression, real-time quantitative PCR: CPT1α; conditions: FIG. 6, liver, HFD+5% w/w in diet, 16 weeks
Experimental: as §1
as §2, with “FAS” for “CD36 (cluster of differentiation 36, 12491), ApoB48 (apolipoprotein B 48, 238055), FATP4”, “synthase, 14101), ACC1 (Acetyl-CoA carboxylase 1, 107476), CPT1α (Carnitine palmitoyltransferase 1α, 12894),” for “transporter 4, 26569), ABCG5 (ATP-binding cassette sub-family G member5, 27409),”, “CPT2 (Carnitine palmitoyltransferase 2, 12896).” for “ABCG8 (ATP-binding cassette sub-family G member8, 67470).”

[3] = test system: high-fat diet-induced obese mice; assay: Plasma lipid profiles of high-fat diet-induced obese mice; conditions: HFD+5% w/w in diet, 16 weeks
Experimental: as §1, with “animals. Plasma free fatty acid, phospholipid, apolipoprotein A-I (Apo A-I), and apolipoprotein B (ApoB B) levels were measured using Nittobo enzymatic kits (Nittobo medical Co., Tokyo, Japan). Plasma HDL-cholesterol, triglyceride (TG), and total cholesterol (total-C) levels were measured using Asan enzymatic kits (Asan, Seoul, South Korea).” for “animals.”

[4] = test system: high-fat diet-induced obese mice; assay: Hepatic tissue morphologies (H&E); conditions: FIG. 4C, 200×, HFD+5% w/w in diet, 16 weeks
Experimental: as §1
Liver tissues were removed from the mice in the normal diet group (ND) and high-fat diet groups (HFD, ERY, GLU, FRU, and PSI) and fixed in a buffer solution of 10% formalin. The fixed liver tissues were embedded in paraffin. […] sections were prepared from the liver tissues and their cross-sections were dyed with hematoxylin and eosin. Stained areas were observed using an optical microscope at a magnification of 200× (Nikon, Tokyo, Japan).

| Structure (SMILES) | mRNA expression level of CD36 in the small intestine [1] | hepatic mRNA expression level of CPT1α [2] | AI, atherogenic index, [(Total C) − HDL-C)]/HDL-C [3] | APO-A I/APO-B [3] | ApoA-I [3] [mg/dL] | ApoB [3] [mg/dL] | FFA (plasma free fatty acid) [3] [mmol/L] | HDL-C [3] [mmol/L] | HTR, (HDL-C/Total-C) × 100 [3] | PL (plasma phospholipid) [3] [mg/dL] | TG (plasma triglyceride) [3] [mmol/L] | Total-C (plasma total cholesterol) [3] [mmol/L] | nonHDL-C [3] [mmol/L] | accumulation / size of adipocytes in the liver tissues [4] | mRNA expression level of CD36 in the small intestine ([1]; listed as D-psicose) |
| --- | --- | --- | --- | --- | --- | --- | --- | --- | --- | --- | --- | --- | --- | --- | --- |
| OC[C@@H](O)[C@@H](O)CO [ERY, erythritol] | significantly higher | significantly lower than those in the ND group | 3.55 | 3.16 | 27.28 | 8.61 | 0.53 | 1.22 | 23.95 | 135.46 | 1.25 | 5.35 | 4.36 | more distinctly observed than in the liver tissues of the ND group | – |
| O=C(CO)[C@@H](O)[C@H](O)[C@H](O)CO [FRU, D-fructose] | significantly higher | significantly lower than those in the ND group | 4.55 | 2.77 | 27.69 | 9.96 | 0.48 | 0.83 | 20.62 | 115.27 | 1.17 | 4.14 | 3.32 | more distinctly observed than in the liver tissues of the ND group | – |
| O=C[C@H](O)[C@@H](O)[C@H](O)[C@H](O)CO [GLU, D-glucose] | significantly higher | significantly lower than those in the ND group | 3.76 | 2.92 | 27.23 | 9.32 | 0.49 | 0.82 | 20.19 | 104.86 | 1.28 | 4.07 | 3.25 | more distinctly observed than in the liver tissues of the ND group | – |
| O=C(CO)[C@H](O)[C@H](O)[C@H](O)CO [PSI, D-psicose] | significantly lower in the PSI group than those in other high-fat diet groups | much significantly lower than those in the ND group | – | 3.80 | – | – | – | – | 42.98 | 107.23 | – | – | – | smaller than that in the liver tissues of other high-fat diet groups | reduces mRNA expression |

— patent publication US20180243325A1, “METHOD FOR INHIBITING ABSORPTION OF AND/OR PROMOTING EXCRETION OF LIPIDS USING D-PSICOSE” (CJ CHEILJEDANG CORPORATION, priority 2015, published 2018)
